Assay results published in patent US20260250272A1, “N-SUBSTITUTED QUINOLINONE COMPOUND, PREPARATION METHOD THEREFOR AND USE THEREOF” (VIGONVITA LIFE SCIENCES CO., LTD., priority 2022, published 2026).
In brackets after ≈: the same amount, converted by molar mass.

Key:
hERG potassium channel = target: T1, hERG potassium channel (Homo sapiens, UniProt Q12809); test: hERG potassium channel block, automatic patch clamp (QPatch, CHO cells); format: cell-based; details: CHO cells stably expressing hERG, highest concentration 20 μM; read-out: hERG inhibition (IC50)
T1 construct: expressed in transfected cells
Method: The hERG potassium channel block experiment was performed using the full-automatic patch-clamp technique (QPatch^HTX, Sophion, Stockholm, Sweden). The cell line is CHO cells stably expressing the hERG potassium channel. The compounds were tested at the highest test concentration of 20 μM in 3-fold dilution (n=3).

[1] = target: T2, human recombinant 5-HT2A receptor (Homo sapiens, UniProt P28223); test: Antagonistic activity against the 5-HT2A receptor (IP-One-Gq, CHO cells); format: cell-based; details: serotonin stimulation
T2 construct: expressed in transfected cells; host or cells: CHO (5-HT2A-CHO)
Method: The antagonistic effect of the compounds on the 5-HT2A receptor in the CHO cells expressing the human recombinant 5-HT2A receptor was assayed by using the IP-One-Gq kit (Cisbio). […] Risperidone was used as a positive control.

[2] = Oil solubility test in benzyl benzoate (HPLC); format: physicochemical; details: organic solvent or mixture, thermodynamic from solid, 25° C., shaken 2 h
Method: The solubility test was performed by quantitative analysis using an external standard method of high-performance liquid chromatography.
Reference sample solution: 10 mg of reference sample was weighed, placed in a 20 mL volumetric flask, diluted to the scale with 80% acetonitrile, and shaken uniformly.
Test sample solution: an appropriate amount of sample was dissolved in benzyl benzoate to obtain a saturated solution. The mixture was placed in a shaker and shaken at 25° C. and 800 rpm for 2 h. The sample solution was filtered, and 100 μL of filtrate was added to a 10 mL volumetric flask, diluted to the scale with 80% acetonitrile, and shaken uniformly.

[3] = target: human recombinant D2L receptor (Homo sapiens, UniProt P14416); test: Antagonistic activity against the D2L receptor (LANCE Ultra cAMP, CHO cells)
Method: The antagonistic effect of the compounds on the D2L receptor in the CHO cells expressing the human recombinant D2L receptor was assayed by using the LANCE® Ultra cAMP kit (PerkinElmer, USA). […] Amisulpride was used as a positive control.

human SERT = target: T3, human SERT (Homo sapiens, UniProt P31645); test: cell-based; details: HEK-hSERT cells; read-out: Inhibitory activity against 5-HT transporter (IC50)
T3 construct: expressed in transfected cells; host or cells: HEK-293 (HEK-hSERT)
Method: The inhibitory effect of the compounds on the 5-HT transporter in the HEK-293 cells expressing human SERT was evaluated by using the neurotransmitter transporter uptake assay kit (Molecular Devices).

[4] = target: T4, human recombinant 5-HT1A receptor (Homo sapiens, UniProt P08908); test: Agonistic activity against the 5-HT1A receptor (LANCE cAMP, HEK293 cells); format: cell-based; details: inhibition of cAMP production
T4 construct: expressed in transfected cells; host or cells: HEK293
T4 sequence (P08908 1-422): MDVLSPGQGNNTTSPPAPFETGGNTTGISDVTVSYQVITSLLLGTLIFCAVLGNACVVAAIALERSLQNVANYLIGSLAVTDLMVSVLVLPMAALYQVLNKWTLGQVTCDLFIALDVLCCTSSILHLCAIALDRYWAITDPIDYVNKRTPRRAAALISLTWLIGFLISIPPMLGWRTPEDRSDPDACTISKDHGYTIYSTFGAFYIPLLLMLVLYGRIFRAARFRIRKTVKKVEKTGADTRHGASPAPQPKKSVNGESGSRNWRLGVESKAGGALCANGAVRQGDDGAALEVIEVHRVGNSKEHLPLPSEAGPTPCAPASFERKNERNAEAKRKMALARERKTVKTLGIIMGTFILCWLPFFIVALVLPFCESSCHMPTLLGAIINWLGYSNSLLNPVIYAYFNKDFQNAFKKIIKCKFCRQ

human D3 receptor = human D3 receptor (Homo sapiens, UniProt P35462); test: cell-based
[5] = Human liver microsome assay; format: in vitro ADME; details: for half-life at 1 μM / CLint scaled at 1 μM: pH 7.41, human liver microsomes 0.5 mg/mL, compound 1 μM, NADPH 2 mM; for half-life at 1 μM: read-out: Half-life (t1/2, min); for CLint scaled at 1 μM: read-out: Intrinsic clearance (Clint, mL/min/kg)
Method: Preparation of magnesium-potassium buffer solution: a 100 mM potassium buffer and 5 mM MgCl2 were preheated together to obtain a magnesium-potassium buffer at a pH of 7.41. Preparation of 0.5 mM working solution: a 10 mM compound stock solution was added to 95 μL of acetonitrile. Preparation of 1.5 μM working solution containing microsomes (0.75 mg/mL): 1.5 μL of the 0.5 mM working solution and 18.75 μL of 20 mg/mL human liver microsome solution were added to 479.75 μL of the magnesium-potassium buffer. Preparation of NADPH stock solution (6 mM, 5 mg/mL): NADPH was dissolved in the magnesium-potassium buffer. 30 μL of 1.5 μM working solution containing 0.75 mg/mL human liver microsomes were added to each of the wells of a 96-well plate, and the plate was pre-incubated at 37° C. for 5 min. For a sample at 0 min, 150 μL of acetonitrile solution containing an internal standard was added, and then 15 μL of NADPH stock solution (6 mM) was added to initiate the reaction. For samples at other time points, 15 μL of NADPH stock solution (6 mM) was directly added to initiate the reaction. Final content of components: compound (1 μM), human liver microsomes (0.5 mg/mL), and NADPH (2 mM). 150 μL of cold stop buffer containing an internal standard was added at time points of 5 min, 15 min, 30 min, and 45 min to stop the sample reaction, the plate was centrifuged at 600 rpm for 10 min and then at 6000 rpm for 15 min, and the supernatant was taken for LC-MS/MS analysis.
A standard curve of the ln residual rate of the drug in the incubation system with respect to the incubation time was plotted by using Excel software, linear regression was performed to obtain a slope k, and the half-life T1/2 (min) and the intrinsic clearance CLint (mL/min/kg) value were calculated according to the following formula: […]

[6] = Pharmacokinetic experiment in rats, intramuscular injection; format: in vivo; details: SD male rats, 43.3 mmol/kg, benzyl benzoate vehicle, up to day 36
Method: The pharmacokinetic experiment in rats was performed on compounds 2, 3, 5, 6, 7, and 8 (non-fasting SD male rats, administered intramuscularly, at a dose of 43.3 mmol/kg, n=3). The vehicle was benzyl benzoate, the injection site was the thigh muscle of the hind limb, and about 0.3 mL of blood samples were collected from the jugular vein of rats at blood collection time points of day 0.25, day 2, day 4, day 6, day 8, day 15, day 22, day 29, and day 36. The collected blood was stored under ice-cold conditions, plasma was rapidly isolated by centrifugation and the precipitant was added, and the concentration of compound 1 (active metabolite) was quantitatively determined by LCMS.

T2 sequence (P28223 whole entry): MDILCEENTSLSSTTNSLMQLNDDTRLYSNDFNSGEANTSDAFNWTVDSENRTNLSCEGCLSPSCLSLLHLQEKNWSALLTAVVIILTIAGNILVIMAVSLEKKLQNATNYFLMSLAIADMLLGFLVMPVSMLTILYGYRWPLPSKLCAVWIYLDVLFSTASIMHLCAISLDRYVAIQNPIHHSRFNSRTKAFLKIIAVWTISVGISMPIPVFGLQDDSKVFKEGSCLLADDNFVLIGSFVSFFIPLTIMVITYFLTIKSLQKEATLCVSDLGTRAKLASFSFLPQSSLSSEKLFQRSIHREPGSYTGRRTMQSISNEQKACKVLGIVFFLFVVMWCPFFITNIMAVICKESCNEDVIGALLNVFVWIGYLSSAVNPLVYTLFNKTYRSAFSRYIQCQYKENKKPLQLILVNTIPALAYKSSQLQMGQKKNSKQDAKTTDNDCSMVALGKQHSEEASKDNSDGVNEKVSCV
T1 sequence (Q12809 whole entry): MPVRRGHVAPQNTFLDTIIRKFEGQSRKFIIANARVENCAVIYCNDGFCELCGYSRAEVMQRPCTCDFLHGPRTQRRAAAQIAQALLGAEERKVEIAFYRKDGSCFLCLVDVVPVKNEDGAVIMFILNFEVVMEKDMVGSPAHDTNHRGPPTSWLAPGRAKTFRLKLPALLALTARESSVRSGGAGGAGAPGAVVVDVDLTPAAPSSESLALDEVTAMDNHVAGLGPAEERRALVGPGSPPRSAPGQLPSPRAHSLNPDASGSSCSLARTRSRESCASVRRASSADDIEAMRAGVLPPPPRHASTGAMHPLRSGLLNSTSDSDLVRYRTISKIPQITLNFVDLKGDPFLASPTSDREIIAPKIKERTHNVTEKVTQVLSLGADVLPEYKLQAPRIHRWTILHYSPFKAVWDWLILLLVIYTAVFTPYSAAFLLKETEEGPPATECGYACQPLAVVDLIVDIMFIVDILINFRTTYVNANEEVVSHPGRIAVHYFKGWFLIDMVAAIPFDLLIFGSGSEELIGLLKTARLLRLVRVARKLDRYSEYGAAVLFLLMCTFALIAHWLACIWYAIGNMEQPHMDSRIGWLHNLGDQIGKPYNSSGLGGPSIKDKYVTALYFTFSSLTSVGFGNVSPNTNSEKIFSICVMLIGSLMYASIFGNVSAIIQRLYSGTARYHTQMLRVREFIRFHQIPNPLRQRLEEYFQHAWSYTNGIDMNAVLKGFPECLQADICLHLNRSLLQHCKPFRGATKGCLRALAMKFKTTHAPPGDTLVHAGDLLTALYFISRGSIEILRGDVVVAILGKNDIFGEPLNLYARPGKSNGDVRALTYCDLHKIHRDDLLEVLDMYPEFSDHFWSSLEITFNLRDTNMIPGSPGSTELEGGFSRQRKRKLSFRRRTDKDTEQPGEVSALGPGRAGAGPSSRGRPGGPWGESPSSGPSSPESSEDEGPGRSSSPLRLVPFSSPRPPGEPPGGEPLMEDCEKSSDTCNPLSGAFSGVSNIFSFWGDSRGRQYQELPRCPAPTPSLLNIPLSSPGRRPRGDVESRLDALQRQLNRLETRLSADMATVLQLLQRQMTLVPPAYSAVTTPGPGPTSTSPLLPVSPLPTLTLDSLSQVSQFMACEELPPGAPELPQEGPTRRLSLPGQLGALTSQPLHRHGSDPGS
human recombinant D2L receptor, sequence (P14416 whole entry): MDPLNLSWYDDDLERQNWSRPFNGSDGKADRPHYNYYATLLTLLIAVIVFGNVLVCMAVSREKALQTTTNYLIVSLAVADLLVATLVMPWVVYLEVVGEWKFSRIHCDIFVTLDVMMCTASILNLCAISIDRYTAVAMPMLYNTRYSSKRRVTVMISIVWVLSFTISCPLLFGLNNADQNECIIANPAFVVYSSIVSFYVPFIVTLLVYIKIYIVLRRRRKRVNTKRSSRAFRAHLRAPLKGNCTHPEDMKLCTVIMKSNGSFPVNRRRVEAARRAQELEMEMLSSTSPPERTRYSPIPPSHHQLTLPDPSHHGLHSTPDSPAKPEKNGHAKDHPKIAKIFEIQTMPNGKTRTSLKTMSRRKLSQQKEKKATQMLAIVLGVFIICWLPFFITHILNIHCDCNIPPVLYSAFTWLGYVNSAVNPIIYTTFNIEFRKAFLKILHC
T3 sequence (P31645 whole entry): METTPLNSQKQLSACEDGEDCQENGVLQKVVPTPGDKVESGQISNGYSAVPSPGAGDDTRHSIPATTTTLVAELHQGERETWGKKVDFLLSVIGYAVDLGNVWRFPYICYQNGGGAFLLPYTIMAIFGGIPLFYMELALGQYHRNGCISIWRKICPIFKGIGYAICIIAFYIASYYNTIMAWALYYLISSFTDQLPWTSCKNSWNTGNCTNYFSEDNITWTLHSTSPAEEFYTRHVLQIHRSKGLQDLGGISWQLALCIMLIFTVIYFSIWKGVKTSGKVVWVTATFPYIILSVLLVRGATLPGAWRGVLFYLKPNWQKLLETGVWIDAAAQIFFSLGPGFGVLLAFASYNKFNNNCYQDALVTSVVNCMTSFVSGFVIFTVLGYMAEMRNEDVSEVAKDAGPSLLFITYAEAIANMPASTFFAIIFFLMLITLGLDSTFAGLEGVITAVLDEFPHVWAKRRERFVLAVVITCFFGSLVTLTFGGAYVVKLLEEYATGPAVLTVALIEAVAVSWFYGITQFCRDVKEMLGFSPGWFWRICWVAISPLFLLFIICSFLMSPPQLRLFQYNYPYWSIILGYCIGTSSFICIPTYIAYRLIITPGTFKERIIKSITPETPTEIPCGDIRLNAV
human D3 receptor, sequence (P35462 whole entry): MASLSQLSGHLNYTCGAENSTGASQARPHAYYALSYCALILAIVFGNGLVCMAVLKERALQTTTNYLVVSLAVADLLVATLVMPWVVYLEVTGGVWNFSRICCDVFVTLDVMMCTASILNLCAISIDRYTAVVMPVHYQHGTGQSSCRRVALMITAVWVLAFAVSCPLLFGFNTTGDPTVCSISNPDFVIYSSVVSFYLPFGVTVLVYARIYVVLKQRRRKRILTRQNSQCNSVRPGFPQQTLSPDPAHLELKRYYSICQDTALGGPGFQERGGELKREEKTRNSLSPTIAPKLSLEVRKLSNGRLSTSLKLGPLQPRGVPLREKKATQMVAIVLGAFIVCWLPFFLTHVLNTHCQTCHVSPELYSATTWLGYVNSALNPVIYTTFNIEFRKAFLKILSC

solubility at 2 h [2] | half-life at 1 μM [5] | SMILES | further results
22.4 mg/mL (≈ 54.6 mM) |  | O=C1CCc2ccc(CCN3CCN(c4cc(F)cc5sccc45)CC3)cc2N1 [Compound 1-a, 7-(2-(4-(6-fluorophenothiophen-4-yl)piperazin-1-yl)ethyl)-3,4-dihydroquinolin-2(1H)-one, reference compound] | IC50 (hERG potassium channel): 920 nM; IC50 [1]: 33 nM; IC50 [3]: 4.4 nM
 |  | O=C1CCc2ccc(CCN3CCN(c4cc(F)cc5sccc45)CC3)cc2N1CO [Compound 1] | IC50 (human SERT): 13 nM; EC50 [4]: 0.7 nM; IC50 (hERG potassium channel): 1810 nM; IC50 [1]: 32 nM; EC50 (human D3 receptor): 7.1 nM; IC50 [3]: 3.5 nM
23.4 mg/mL (≈ 48.7 mM) | 0.87 min | CC(=O)OCN1C(=O)CCc2ccc(CCN3CCN(c4cc(F)cc5sccc45)CC3)cc21 [Compound 5] | CLint scaled at 1 μM [5]: 2000 mL/min/kg
> 200 mg/mL | 30 min | CCCCCCCCCC(=O)OCN1C(=O)CCc2ccc(CCN3CCN(c4cc(F)cc5sccc45)CC3)cc21 [Compound 7, (7-(2-(4-(6-fluorobenzo[b]thiophen-4-yl)piperazin-1-yl)ethyl)-2-oxo-3,4-dihydroquinolin-1(2H)-yl)methyl decanoate] | Metabolic stability in human liver microsomes (in words) [5]: good metabolic stability; CLint scaled at 1 μM [5]: 56.8 mL/min/kg
> 200 mg/mL | > 120 min | CCCCCCCCCCCCCCCC(=O)OCN1C(=O)CCc2ccc(CCN3CCN(c4cc(F)cc5sccc45)CC3)cc21 [Compound 8, (7-(2-(4-(6-fluorobenzo[b]thiophen-4-yl)piperazin-1-yl)ethyl)-2-oxo-3,4-dihydroquinolin-1(2H)-yl)methyl palmitate] | Fluctuation in the plasma concentration of the active metabolite (compound 1) [6]: minimal fluctuation; Metabolic stability in human liver microsomes (in words) [5]: good metabolic stability
166 mg/mL (≈ 317 mM) | 1 min | CCCCC(=O)OCN1C(=O)CCc2ccc(CCN3CCN(c4cc(F)cc5sccc45)CC3)cc21 [Compound 6] | CLint scaled at 1 μM [5]: 1720 mL/min/kg
> 200 mg/mL | 367 min | CCCCCCCCCCCC(=O)OCN1C(=O)CCc2ccc(CCN3CCN(c4cc(F)cc5sccc45)CC3)cc21 [Compound 3] | CLint scaled at 1 μM [5]: 4.73 mL/min/kg
> 200 mg/mL |  | CCCCC(C)(C)C(=O)OCN1C(=O)CCc2ccc(CCN3CCN(c4cc(F)cc5sccc45)CC3)cc21 [Compound 108, (7-(2-(4-(6-Fluorobenzo[b]thiophen-4-yl)piperazin-1-yl)ethyl)-2-oxo-3,4-dihydroquinolin-1(2H)-yl) methyl 2,2-dimethylhexanoate] | 
> 200 mg/mL |  | CCCCCCCCCCCCCCCC(=O)OC(C)N1C(=O)CCc2ccc(CCN3CCN(c4cc(F)cc5sccc45)CC3)cc21 (stereo not drawn) [Compound 15, 1-(7-(2-(4-(6-Fluorobenzo[b]thiophen-4-yl)piperazin-1-yl)ethyl)-2-oxo-3,4-dihydroquinolin-1(2H)-yl) ethyl palmitate] | 
75 mg/mL (≈ 143 mM) | 0.69 min | CC(C)OC(=O)OCN1C(=O)CCc2ccc(CCN3CCN(c4cc(F)cc5sccc45)CC3)cc21 [Compound 2] | CLint scaled at 1 μM [5]: 2530 mL/min/kg
> 200 mg/mL |  | CCCCCCCCCOC(=O)OCN1C(=O)CCc2ccc(CCN3CCN(c4cc(F)cc5sccc45)CC3)cc21 [Compound 27, (7-(2-(4-(6-Fluorobenzo[b]thiophen-4-yl)piperazin-1-yl)ethyl)-2-oxo-3,4-dihydroquinolin-1(2H)-yl) methyl nonyl carbonate] | 
> 200 mg/mL |  | CCCCCCCCCCCCCCCCCCCC(=O)OCN1C(=O)CCc2ccc(CCN3CCN(c4cc(F)cc5sccc45)CC3)cc21 [Compound 69, (7-(2-(4-(6-Fluorobenzo[b]thiophen-4-yl)piperazin-1-yl)ethyl)-2-oxo-3,4-dihydroquinolin-1(2H)-yl) methyl icosanoate] | 
> 200 mg/mL |  | CCCCCCCC/C=C\CCCCCCCC(=O)OCn1c(=O)ccc2ccc(CCN3CCN(c4cc(F)cc5sccc45)CC3)cc21 [Compound 77, (7-(2-(4-(6-Fluorobenzo[b]thiophen-4-yl)piperazin-1-yl)ethyl)-2-oxoquinolin-1(2H)-yl)methyl oleate] | 
> 200 mg/mL |  | CCCCCCCCCCCCCCCCCC(=O)OCN1C(=O)CCc2ccc(CCN3CCN(c4cc(F)cc5sccc45)CC3)cc21 [Compound 68, (7-(2-(4-(6-Fluorobenzo[b]thiophen-4-yl)piperazin-1-yl)ethyl)-2-oxo-3,4-dihydroquinolin-1(2H)-yl) methyl stearate] | 
> 200 mg/mL |  | CCCCCCCCCCCC(=O)OC(C)N1C(=O)CCc2ccc(CCN3CCN(c4cc(F)cc5sccc45)CC3)cc21 (stereo not drawn) [Compound 13, 1-(7-(2-(4-(6-Fluorobenzo[b]thiophen-4-yl)piperazin-1-yl)ethyl)-2-oxo-3,4-dihydroquinolin-1(2H)-yl)ethyl dodecanoate] | 
> 200 mg/mL |  | CCCCCCCCCCCCCCCCCCCCCCCC(=O)OCN1C(=O)CCc2ccc(CCN3CCN(c4cc(F)cc5sccc45)CC3)cc21 [Compound 75, (7-(2-(4-(6-Fluorobenzo[b]thiophen-4-yl)piperazin-1-yl)ethyl)-2-oxo-3,4-dihydroquinolin-1(2H)-yl) methyl tetracosanoate] | 
> 200 mg/mL |  | CCCCCCCOC(=O)OCN1C(=O)CCc2ccc(CCN3CCN(c4cc(F)cc5sccc45)CC3)cc21 [Compound 25, (7-(2-(4-(6-Fluorobenzo[b]thiophen-4-yl)piperazin-1-yl)ethyl)-2-oxo-3,4-dihydroquinolin-1(2H)-yl) methyl heptyl carbonate] | 
